According to patent publication US10047105B2, “Gyrase inhibitors” (Merck Sharp & Dohme Corp., priority 2009, dated 2018):

Tests used:
Format in all cases: cell-based
S. aureus ATCC 13709 = assay: MIC, antibacterial potency, S. aureus; settings: S. aureus (SA); in µg/mL
S. pneumoniae ATCC 51916 = assay: MIC, S. pneumoniae; settings: S. pneumoniae (Spn52); in µg/mL
E. coli 8 ATCC 25922 = assay: MIC, E. coli 8 (wt); settings: E. coli 8 (EC8)

Structure (SMILES)	MIC, SA (S. aureus ATCC 13709)	MIC Spn52 (S. pneumoniae ATCC 51916)	MIC EC8 (E. coli 8 ATCC 25922)
CCc1[nH]c2nc(Sc3cnc4cccnc4c3)nc(N3CC[C@@H](N)C3)c2c1Cl.O=C(O)C(F)(F)F.O=C(O)C(F)(F)F [700,795]	<=0.5	<=0.5	8 µg/mL
CCc1[nH]c2nc(Sc3cc(OC)c4c(N)nc(C)nc4c3)nc(N3CC[C@@H](N)C3)c2c1Cl [700,863]	8	8	–
CCc1[nH]c2nc(Sc3cc(F)cc4nc(C)nc(N)c34)nc(N3CC[C@@H](N)C3)c2c1Cl [700,864]	4	4	–
CCc1[nH]c2nc(Sc3cc(Cl)c4c(N)nc(C)nc4c3)nc(N3CC[C@@H](N)C3)c2c1Cl [700,865]	1	<=0.5	–
CCc1[nH]c2nc(Oc3cncnc3)nc(N(C)C)c2c1Br [700,866]	1	8	–
CCc1[nH]c2nc(Sc3cnc4cccnc4c3)nc(N3CC(Cc4cncnc4)C3)c2c1Cl [700,867]	<=0.5	1	–
CCc1[nH]c2nc(Sc3cnc4nccnc4c3)nc(N3C[C@H](N)C[C@@H]3CO)c2c1Cl [700,868]	>64	>64	–
CCc1[nH]c2nc(Sc3cnc4cccnc4c3)nc(N3CC(N)C4(CC4)C3)c2c1Cl (centres unmarked) [700,869]	2	4	–
CCc1[nH]c2nc(Sc3cnc4cccnc4c3)nc(N3C[C@H](N)C[C@@H]3CO)c2c1Cl [700,870]	64	64	–
CCc1[nH]c2nc(Sc3cnc4cccnc4c3)nc(N3CCC(c4cccnc4)C3)c2c1Cl (centres unmarked) [700,871]	<=0.5	2	–
CCc1[nH]c2nc(Sc3cnc4cccnc4c3)nc(N3C[C@@H](N)[C@H](c4ccccc4)C3)c2c1Cl [700,872]	1	2	–
CCc1[nH]c2nc(Sc3cnc4cccnc4c3)nc(N3C[C@@H](N)[C@@H](C(=O)OC)C3)c2c1Cl [700,873]	2	32	–
CCc1[nH]c2nc(Oc3cccc(C#N)c3)nc(C3CC3)c2c1Cl [700,874]	2	8	–
CCc1[nH]c2nc(Cc3cccnc3)nc(Oc3cccc(C#N)c3)c2c1Cl [700,875]	32	>32	–
CCc1[nH]c2nc(Sc3cnc4cccnc4c3)nc(N3CC(C(=O)N4CC(N)C4)C3)c2c1Cl [700,876]	8	8	–
CCc1[nH]c2nc(Oc3cncnc3)nc(N3CC(N)C3)c2c1Br [700,877]	4	8	–
CCc1[nH]c2nc(Oc3cncnc3)nc(Oc3cncc(C#N)c3)c2c1Br [700,878]	<=0.5	<=0.5	–
CCc1[nH]c2nc(Oc3cnc4ccoc4c3)nc(Oc3cnc4ccoc4c3)c2c1Br [700,883]	<=0.5	<=0.5	–
CCc1[nH]c2nc(Sc3cnc4nccnc4c3)nc(N3C[C@@H]4[C@H](C3)[C@@]4(N)CN)c2c1Cl [700,884]	4	16	–
CCc1[nH]c2nc(Sc3cnc4cccnc4c3)nc(N3C[C@@H]4[C@H](C3)[C@@]4(N)CN)c2c1Cl [700,885]	2	4	–
CCc1[nH]c2nc(Sc3cnc4nccnc4c3)nc(N3CC4C(C3)C4(CN)NCc3ccccc3)c2c1Cl (centres unmarked) [700,886]	>8	8	–
CCc1[nH]c2nc(Sc3cnc4cccnc4c3)nc(N3CC4C(C3)C4(CN)NCc3ccccc3)c2c1Cl (centres unmarked) [700,887]	8	4	–
CCc1[nH]c2nc(Sc3cnc4cccnc4c3)nc(N3CCC(N)(C(=O)N[C@H]4CCOC4=O)C3)c2c1Cl (some centres unmarked) [700,888]	>64	>64	–
CCc1[nH]c2nc(Sc3cnc4cccnc4c3)nc(N3CCC(N)(C(=O)N[C@H](CO)C(=O)OC)C3)c2c1Cl (some centres unmarked) [700,889]	32	32	–
CCc1[nH]c2nc(Sc3cnc4cccnc4c3)nc(N3C[C@H](C4CCCCC4)[C@@H](N)C3)c2c1Cl [700,890]	2	4	–
CCc1[nH]c2nc(Sc3cnc4cccnc4c3)nc(N3CCC(N)(C(=O)N[C@H](CO)C(=O)O)C3)c2c1Cl (some centres unmarked) [700,891]	>64	>64	–
CCc1[nH]c2nc(Oc3cccc(C#N)c3)nc(/C=C\c3cccc(OC)c3)c2c1Cl [700,892]	>64	>64	–
CCc1[nH]c2nc(Oc3cccc(C#N)c3)nc(C(C)=O)c2c1Cl [700,893]	4	8	–
CCc1[nH]c2nc(Sc3cnc4c(NCC5OCCO5)nc(C)nc4c3)nc(N3CC[C@@H](N)C3)c2c1Cl [700,894]	32	8	–
